Data taken from PubChem BioAssay (NCI).
Several values for one entry are separate records, joined by “and”; a condition that tells them apart may be missing. Equal values may be shown once.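 Method: 48-hour compound exposure of cells in 96-well plates, five concentrations, linear interpolation of endpoints. At the GI50, growth is halved. TGI marks complete inhibition of growth.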

Legend:
Assay in all cases: NCI-60 cell line screen, 48 h
SN12C renal = system: SN12C renal
SNB-75 CNS = system: SNB-75 CNS
SW-620 colon = system: SW-620 colon
HT29 colon = system: HT29 colon
NCI-H23 lung = system: NCI-H23 lung
HCT-15 colon = system: HCT-15 colon
OVCAR-5 ovarian = system: OVCAR-5 ovarian
HS 578T breast = system: HS 578T breast
NCI-H522 lung = system: NCI-H522 lung
HCT-116 colon = system: HCT-116 colon

SMILES	GI50 (SN12C renal)	TGI (SN12C renal)	GI50 (SNB-75 CNS)	TGI (SNB-75 CNS)	GI50 (SW-620 colon)	TGI (SW-620 colon)	GI50 (HT29 colon)	TGI (HT29 colon)	GI50 (NCI-H23 lung)	TGI (NCI-H23 lung)	GI50 (HCT-15 colon)	TGI (HCT-15 colon)	GI50 (OVCAR-5 ovarian)	TGI (OVCAR-5 ovarian)	GI50 (HS 578T breast)	TGI (HS 578T breast)	GI50 (NCI-H522 lung)	TGI (NCI-H522 lung)	GI50 (HCT-116 colon)	TGI (HCT-116 colon)
Nc1nc(N)c(-c2ccc(Cl)cc2)c(/C=C/c2ccc([N+](=O)[O-])cc2)n1	8.02 µM	> 100 µM	5 µM	34 µM	4.08 µM	> 100 µM	4.99 µM	> 100 µM	13.3 µM	> 100 µM	3.97 µM	> 100 µM	38.2 µM	> 100 µM	9.97 µM	> 100 µM	13.2 µM	41.9 µM	3.97 µM	> 100 µM
CC(C)CC1NC(=O)C(C(C)C)NC(=O)CC(C)COC(=O)C(CC(C)C)N(C)C(=O)C(C(C)C)NC(=O)C(C(C)C)OC1=O (stereo not given)	–	> 50 µM	–	30.2 µM	–	> 50 µM	–	> 50 µM	–	> 50 µM	–	> 50 µM	–	> 50 µM	–	> 50 µM	–	> 50 µM	–	> 50 µM
C=CC(=O)Nc1cccc(Nc2nc(Nc3ccc(N4CCN(C(C)=O)CC4)cc3OC)ncc2C(F)(F)F)c1	4.02 µM and 2.95 µM	> 10 µM and 54.8 µM	5.18 µM and 2.47 µM	> 10 µM and 15.3 µM	3.07 µM and 2.29 µM	> 10 µM and 12.7 µM	2.18 µM and 1.55 µM	> 27.1 µM	5.27 µM and 5.47 µM	> 10 µM and 30 µM	3.06 µM and 2.94 µM	> 10 µM and 13.8 µM	3.15 µM and 2.29 µM	> 100 µM	3.73 µM and 3.36 µM	> 95.9 µM	0.484 µM and 0.506 µM	6.73 µM and 7.66 µM	3.96 µM and 2.54 µM	> 54.4 µM
CCC(=O)Oc1ccc(/C=N/NC(N)=S)nc1	3.75 µM	> 100 µM	6.13 µM	> 100 µM	7.67 µM	> 100 µM	19.3 µM	> 100 µM	2.48 µM	> 100 µM	6.38 µM	> 100 µM	34 µM	> 100 µM	30.9 µM	> 100 µM	4.58 µM	76.5 µM	4.46 µM	> 100 µM
Cn1c(=O)c2[nH]cnc2n(C)c1=O.[CH2-]C(Cc1cccc2cc(C(=O)O)c(=O)oc12)OC.[Hg+2].[OH-] (stereo not given)	18 µM	32.5 µM	17.7 µM	32.7 µM	10.8 µM	28.7 µM	17.1 µM	32 µM	16.8 µM	30.9 µM	16.6 µM	30.9 µM	18.6 µM	32.7 µM	22.2 µM	57.3 µM	15.1 µM	32.5 µM	16.8 µM	30.5 µM
O=C1CC2OCC=C3CN4CCC56c7ccccc7N1C5C2C3CC46 (stereo not given) (tested in a mixture with another compound)	> 50 µg/mL	> 50 µg/mL	> 50 µg/mL	> 50 µg/mL	> 50 µg/mL	> 50 µg/mL	> 50 µg/mL	> 50 µg/mL	> 50 µg/mL	> 50 µg/mL	> 50 µg/mL	> 50 µg/mL	> 50 µg/mL	> 50 µg/mL	> 50 µg/mL	> 50 µg/mL	> 50 µg/mL	> 50 µg/mL	> 50 µg/mL	> 50 µg/mL
O=[N+]([O-])c1ccc2nc(=S)[nH]n2c1	–	> 100 µM	–	> 100 µM	–	> 100 µM	–	> 100 µM	–	> 100 µM	–	> 100 µM	–	> 100 µM	–	> 100 µM	–	> 100 µM	–	> 100 µM
O=C(O)CSc1nnc2c3ccccc3c3ccccc3c2n1	–	> 100 µM	–	> 100 µM	–	> 100 µM	–	> 100 µM	–	> 100 µM	–	> 100 µM	–	> 100 µM	–	> 100 µM	–	> 100 µM	–	> 100 µM
NCCNc1ncnc2ccc(Cl)cc12	–	> 100 µM	–	> 100 µM	–	> 100 µM	–	> 100 µM	–	> 100 µM	–	> 100 µM	–	> 100 µM	–	> 100 µM	–	> 100 µM	–	> 100 µM
COc1cc2c3c(n(CCCN4CCN(CCO)CC4)c(=O)c2cc1OC)-c1cc2c(cc1C3=O)OCO2	> 100 µM	> 100 µM	9.87 µM	31.7 µM	8.37 µM	24.7 µM	3.06 µM	15.9 µM	4.77 µM	16.5 µM	18.1 µM	> 61.2 µM	19.9 µM	40.9 µM	> 100 µM	> 100 µM	> 33 µM	> 51.2 µM	1.14 µM	7.79 µM
Nc1ncnc2c1ncn2C1OC(C(=O)OCCO)C(O)C1O (stereo not given)	–	> 100 µM	–	> 100 µM	–	> 100 µM	–	> 100 µM	–	> 100 µM	–	> 100 µM	–	> 100 µM	–	> 100 µM	–	> 100 µM	–	> 100 µM
NC(N)=NC(N)=NCc1ccco1	> 1250 µM	> 1250 µM	> 1250 µM	> 1250 µM	> 1250 µM	> 1250 µM	> 1250 µM	> 1250 µM	869 µM and 661 µM	> 1250 µM	> 1250 µM	> 1250 µM	> 1250 µM	> 1250 µM	> 1250 µM	> 1250 µM	> 1250 µM	> 1250 µM	508 µM and 492 µM	> 1250 µM
